The text below walks through data of patent publication US10463532B2, “Method for placing implant in choroid that can less invasively and simply place implant in choroid in optic disc-macula area” (priority 2016, dated 2019).

Data set [1] is described as follows: Experiment 1: dexamethasone concentration in the retina after intravitreal, intrascleral or intrachoroidal gelatin implant (LC/MS/MS). The data set is classed as in vivo, Japanese white rabbits. To be noted: Japanese white, rabbit, 3 μg. As for the experimental part: Experiments were performed to determine the drug release effect of an intrachoroidal implant, an intravitreal implant, and an intrascleral implant. In Experiment 1, the implant was placed in the choroid using the known method illustrated in FIG. 10. […] Therefore, the implant was placed in the choroid using the known method in order to compare the intravitreal implant, the intrascleral implant, and the intrachoroidal implant as to the drug release effect.
Gelatin was cut to have a size of 0.3 (length)×0.3 (width)×0.1 (thick) mm.
Twelve 3-month-old Japanese white rabbits (purchased from Japan SLC, Inc., weight: 2 to 2.5 kg) were used as subjects. The rabbits were equally divided into an intrachoroidal implant group, an intravitreal implant group, and an intrascleral implant group, and the implant was placed in one of the eyes of each rabbit belonging to each group.
Regarding the intrachoroidal implant group, the vitreous gel in the eyeball was liquefied, and the implant was placed in the choroid using the known method for placing an implant in the choroid. The implant was placed in the choroid at a position 6 mm below the cornea.
Regarding the intravitreal implant group, the implant was placed in the vitreous body at a position 2 mm above the cornea.
Regarding the intrascleral implant group, the implant was placed in the sclera at a position 6 mm below the cornea.
The eyeball was removed from each rabbit (four rabbits) belonging to each group when 1, 3, and 24 hours had elapsed after the placement of the implant. […] In FIG. 14, the symbol “*” indicates P<0.05, and the symbol “**” indicates P<0.01.

Data set [2] in a line: Experiment 2: dexamethasone concentration in the retina after DEX-PLA implant placed in the choroid near the optic disc (LC/MS/MS). In kind it is in vivo, Japanese white rabbits. To be noted: Japanese white, rabbit, other: intrachoroidal implant near the optic disc, 3 μg. The text has this:
Nine 3-month-old Japanese white rabbits (purchased from Japan SLC, Inc., weight: 2 to 2.5 kg) were used as subjects, and the implant was placed in one of the eyes of each rabbit.
The implant was placed in the choroid using the method for placing an implant in the choroid according to the embodiments of the invention. Specifically, the conjunctiva was incised, and an injection needle having a size of 25G was inserted between the conjunctiva and the sclera. The tip of the injection needle was advanced to the vicinity of the optic disc along the surface of the sclera. After placing a vitrectomy lens over the cornea so that the eyeground could be observed, the tip of the injection needle appearing white was observed while observing the eyeground through the vitrectomy lens and pressing the sclera using the tip of the injection needle. The tip of the injection needle was moved to determine an appropriate insertion position of the implant in the vicinity of the optic disc, and the tip of the injection needle was inserted diagonally into the sclera. The tip of the injection needle was advanced into the choroid, and the implant was inserted into the choroid through the tip opening formed at the tip of the injection needle.
The eyeball was removed from each rabbit (three rabbits) belonging to each group when 24 hours, 1 week, and 3 weeks had elapsed after the placement of the implant.

SMILES strings stand for the structures.

Consider `C[C@@H]1C[C@H]2[C@@H]3CCC4=CC(=O)C=C[C@]4(C)[C@@]3(F)[C@@H](O)C[C@]2(C)[C@@]1(O)C(=O)CO` [dexamethasone], for which, in data set [1] (other: intrachoroidal implant), the concentration at 1 h turned out to be 409 ± 115 ng/g, the concentration at 3 h is 23.8 ± 10.2 ng/g and the concentration at 24 h came out at 4.7 ± 3.3 ng/g. Moreover, in data set [1] (other: intrascleral implant), the concentration at 1 h amounted to 122 ± 79.7 ng/g, the concentration at 3 h was determined as 5.4 ± 4 ng/g and the concentration at 24 h worked out at 3.3 ± 3.2 ng/g. In data set [1] (other: intravitreal implant), this compound yielded a concentration at 1 h of 13.5 ± 8.7 ng/g, a concentration at 3 h of 3.6 ± 4.2 ng/g and a concentration at 24 h of 4.2 ± 4.5 ng/g. In data set [2], this compound showed a concentration at 1 week of 41.2 ± 14.2 ng/g, a concentration at 3 weeks of 17.2 ± 11.3 ng/g and a concentration at 24 h of 159 ± 28.2 ng/g.
